{
  "source": "patent US20240140935A1",
  "about": "“NON-COVALENT DIMER CATION, SALT THEREOF, PREPARATION METHOD THEREOF, AND USE THEREOF AS ANTIOXIDANT” (SUZHOU PROTONATION CHAIN BIOTECHNOLOGY CO., LTD., priority 2022, published 2024)",
  "key": {"[1]": {"test_system": "L02 human normal hepatocytes", "experiment": "Carbon tetrachloride hepatotoxicity cell model, levels of ROS, MDA, GSH, SOD and ATP in cell lysate", "type": "cell-based", "experimental": "(§1) The salts of Example 1, Example 16, and Example 13 were taken as the compound of experimental groups, vitamin E was taken as the compound of control group. A blank group (without carbon tetrachloride) and a model group (with carbon tetrachloride but with neither the salt of the present application nor vitamin E) were also set.\nL02 human normal hepatocytes were uniformly inoculated into a 96-well plate, about 5,000 cells per well. The cells were cultured in a complete DMEM for 6 h. After the cells were completely adhered to the wall, all the media were removed, 100 μL of serum-free DMEM containing 0.02 mg/mL carbon tetrachloride (for the blank group, a serum-free medium without carbon tetrachloride) was added to each well, and the cells were cultured for 12 h. Then, all the media were removed, 100 μL of serum-free DMEM containing […] compound of experimental groups or control group was added to each well (for the blank group and the model group, serum-free DMEM without the compound) according to the groups, and the cells were cultured for 24 h.\n(§2) 50 μL of RIPA lysis buffer (strong) was added to each well to lyse the cells, and levels of reactive oxygen species, malondialdehyde, glutathione, superoxide dismutase, and adenosine triphosphate in the cells of each group were detected by using corresponding chemical reagents."}, "[2]": {"test_system": "L02 human normal hepatocytes", "experiment": "Palmitate-induced non-alcoholic fatty liver disease cell model, levels of ROS, MDA, GSH, SOD and ATP in cell lysate", "type": "cell-based", "experimental": "as §1, with “palmitate)” for “carbon tetrachloride)”, “palmitate” for “carbon tetrachloride”\nL02 human normal hepatocytes were uniformly inoculated into a 96-well plate, about 5,000 cells per well. The cells were cultured in a complete DMEM for 6 h. After the cells were completely adhered to the wall, all the media were removed, 100 μL of serum-free medium containing 0.05 mg/mL palmitate was added to each well (for the blank group, a serum-free medium without palmitate), and the cells were cultured for 24 h.\nThen, all the media were removed, 100 μL of serum-free DMEM containing […] compound of experimental groups or control group was added to each well (for the blank group and the model group, serum-free DMEM without the compound) according to the groups, and the cells were cultured for 24 h.\nas §2"}},
  "data": [
    {"substance": "vitamin E", "values": [
      {"measurement": "level of ROS in the cells", "setting": "[1]; FIG. 6 (a)", "value": "only slightly reduce"},
      {"measurement": "level of MDA in the cells", "setting": "[1]; FIG. 6 (b)", "value": "only slightly reduce"},
      {"measurement": "level of GSH in the cells", "setting": "[1]; FIG. 6 (c)", "value": "only slightly increase"},
      {"measurement": "level of SOD in the cells", "setting": "[1]; FIG. 6 (d)", "value": "only slightly increase"},
      {"measurement": "level of ATP in the cells", "setting": "[1]; FIG. 6 (e)", "value": "only partially increase"},
      {"measurement": "level of ROS in the cells", "setting": "[2]; FIG. 4 (a)", "value": "only slightly reduce"},
      {"measurement": "level of MDA in the cells", "setting": "[2]; FIG. 4 (b)", "value": "only slightly reduce"},
      {"measurement": "level of GSH in the cells", "setting": "[2]; FIG. 4 (c)", "value": "only slightly increase"},
      {"measurement": "level of SOD in the cells", "setting": "[2]; FIG. 4 (d)", "value": "only slightly increase"},
      {"measurement": "level of ATP in the cells", "setting": "[2]; FIG. 4 (e)", "value": "only partially increase"}
    ]}
  ]
}
